Assay: CHI Log D procedure
Format: physicochemical
Details: pH 7.4

SMILES	CHI Log D	chromatographic logD
CC(=O)N[C@@H](Cc1ccccc1)C(=O)N[C@@H](CC(=O)O)C(=O)N[C@@H](C)C(=O)N[C@]1(C)CCCCCCC=CCOC(=O)N2CC[C@@](C(=O)N[C@@H](CC(=O)O)C(=O)N[C@@H](Cc3c[nH]c4ccccc34)C(=O)N[C@@H](CCC(N)=O)C(N)=O)(C2)NC(=O)[C@H](C(C)C)NC(=O)[C@H](Cc2ccccc2)NC(=O)[C@H](C)NC(=O)[C@H](C)NC(=O)[C@H](CC(=O)O)NC(=O)[C@H](CC(=O)O)NC1=O [I-121, Ac-Phe-Asp-Ala-R8-Asp-Asp-Ala-Ala-Phe-Val-PyrS-Asp-Trp-Gln-NH2]	0.825	–
CC(=O)N[C@@H](Cc1ccccc1)C(=O)N[C@@H](CC(=O)O)C(=O)N[C@@H](C)C(=O)N[C@]1(C)CCCCCCC=CCOC(=O)N2CC[C@@](C(=O)N[C@@H](Cc3ccccc3)C(=O)N[C@@H](Cc3c[nH]c4ccccc34)C(=O)N[C@@H](CCC(N)=O)C(N)=O)(C2)NC(=O)[C@H](C(C)C)NC(=O)[C@H](CC2CCCC2)NC(=O)[C@H](C)NC(=O)[C@H](C)NC(=O)[C@H](CC(=O)O)NC(=O)[C@H](CC(=O)O)NC1=O (single isomer, unassigned) [I-96, Ac-Phe-Asp-Ala-R8-Asp-Asp-Ala-Ala-CypA-Val-PyrS-Phe-Trp-Gln-NH2]	1.343	–
CC(=O)N[C@@H](Cc1ccccc1)C(=O)N[C@@H](CC(=O)O)C(=O)N[C@@H](C)C(=O)NC12CN(C1)C(=O)OCC=CCCCCC[C@@](C)(C(=O)N[C@@H](Cc1ccccc1)C(=O)N[C@@H](Cc1c[nH]c3ccccc13)C(=O)N[C@@H](CCC(N)=O)C(N)=O)NC(=O)[C@H](C(C)C)NC(=O)[C@H](Cc1ccccc1)NC(=O)[C@H](C)NC(=O)[C@H](C)NC(=O)[C@H](CC(=O)O)NC(=O)[C@H](CC(=O)O)NC2=O [I-33, Ac-Phe-Asp-Ala-Az-Asp-Asp-Ala-Ala-Phe-Val-S7-Phe-Trp-Gln-NH2]	1.228	–
CCCC[C@@H]1NC(=O)[C@H](CC(=O)O)NC(=O)[C@](C)(NC(=O)[C@H](C)NC(=O)[C@H](CC(=O)O)NC(=O)[C@H](Cc2ccccc2)NC(C)=O)CCCCCCC=CCOC(=O)N2CC[C@@](C(=O)N[C@@H](Cc3ccccc3)C(=O)N[C@@H](Cc3c[nH]c4ccccc34)C(=O)N[C@@H](CCC(N)=O)C(N)=O)(C2)NC(=O)[C@H](C(C)C)NC(=O)[C@H](Cc2ccccc2)NC(=O)[C@H](C)NC(=O)[C@H](C)NC1=O [I-14, Ac-Phe-Asp-Ala-R8-Asp-nLeu-Ala-Ala-Phe-Val-PyrS-Phe-Trp-Gln-NH2]	2.013	–
CC(=O)N[C@@H](Cc1ccccc1)C(=O)N[C@@H](CC(=O)O)C(=O)N[C@@H](C)C(=O)N[C@]1(C)CCCCCCC=CCOC(=O)N2CC[C@@](C(=O)N[C@@H](Cc3ccccc3)C(=O)N[C@@H](Cc3c[nH]c4ccccc34)C(=O)N[C@@H](CCC(N)=O)C(N)=O)(C2)NC(=O)[C@H](C(C)C)NC(=O)[C@H](Cc2ccccc2)NC(=O)[C@H](C)NC(=O)[C@H](C)NC(=O)[C@H](Cc2ccccc2)NC(=O)[C@H](CC(=O)O)NC1=O (single isomer, unassigned) [I-99, Ac-Phe-Asp-Ala-R8-Asp-Phe-Ala-Ala-Phe-Val-PyrS-Phe-Trp-Gln-NH2]	–	1.99
CC(=O)N[C@@H](Cc1ccccc1)C(=O)N[C@@H](CC(=O)O)C(=O)N[C@@H](C)C(=O)N[C@]1(C)CCCCCCC=CCOC(=O)N2CC[C@@](C(=O)N[C@@H](Cc3ccccc3)C(=O)N[C@@H](Cc3c[nH]c4ccccc34)C(=O)N[C@@H](CCC(N)=O)C(N)=O)(C2)NC(=O)[C@H](C(C)C)NC(=O)[C@H](Cc2ccccc2)NC(=O)[C@H](CCC(=O)O)NC(=O)[C@H](C)NC(=O)[C@H](CC(=O)O)NC(=O)[C@H](CC(=O)O)NC1=O (single isomer, unassigned) [I-22, Ac-Phe-Asp-Ala-R8-Asp-Asp-Ala-Glu-Phe-Val-PyrS-Phe-Trp-Gln-NH2]	0.911	–
CC(=O)N[C@@H](Cc1ccccc1)C(=O)N[C@@H](CC(=O)O)C(=O)N[C@@H](C)C(=O)N[C@]1(C)CCCCCCC=CCOC(=O)N2CC[C@@](C(=O)N[C@@H](Cc3ccccc3)C(=O)N[C@@H](Cc3c[nH]c4ccccc34)C(=O)N[C@@H](CCC(N)=O)C(N)=O)(C2)NC(=O)[C@H](C(C)C)NC(=O)[C@H](CCc2ccccc2)NC(=O)[C@H](C)NC(=O)[C@H](C)NC(=O)[C@H](CC(=O)O)NC(=O)[C@H](CC(=O)O)NC1=O [I-118, Ac-Phe-Asp-Ala-R8-Asp-Asp-Ala-Ala-hPhe-Val-PyrS-Phe-Trp-Gln-NH2]	1.545	–
CC(=O)N[C@@H](Cc1ccccc1)C(=O)N[C@@H](CC(=O)O)C(=O)N[C@@H](C)C(=O)N[C@]1(C)CCCCCCC=CCOC(=O)N2CC[C@@](C(=O)N[C@@H](Cc3ccccc3)C(=O)N[C@@H](Cc3c[nH]c4ccccc34)C(=O)N[C@@H](CCC(N)=O)C(N)=O)(C2)NC(=O)[C@H](C(C)C)NC(=O)[C@H](CCc2ccc(O)cc2)NC(=O)[C@H](C)NC(=O)[C@H](C)NC(=O)[C@H](CC(=O)O)NC(=O)[C@H](CC(=O)O)NC1=O [I-120, Ac-Phe-Asp-Ala-R8-Asp-Asp-Ala-Ala-hTyr-Val-PyrS-Phe-Trp-Gln-NH2]	1.243	–

Further lines, with some results ahead:

CHI Log D	SMILES	chromatographic logD
2.106	CC(=O)N1CCC[C@]12CC=CCCCC1(CCCC=CCCCCCC[C@@](C)(C(=O)N[C@@H](Cc3ccc(F)c(F)c3)C(=O)N[C@@H](Cc3c[nH]c4ccccc34)C(=O)N[C@@H](CCC(N)=O)C(N)=O)NC(=O)[C@H](C(C)C)NC(=O)[C@H](Cc3ccccc3)NC(=O)[C@H](C)NC(=O)[C@H](C)NC(=O)[C@H](CC(=O)O)NC(=O)[C@H](CC(=O)O)NC1=O)NC(=O)[C@H](C)NC(=O)[C@H](CC(=O)O)NC2=O (stereo partly drawn) [I-262, Ac-PL3-Asp-Ala-B5-Asp-Asp-Ala-Ala-Phe-Val-S8-34FF-Trp-Gln-NH2]	–
2.339	CC(=O)N1CCC[C@]12CC=CCCCC1(CCCC=CCCCCCC[C@@](C)(C(=O)N[C@@H](Cc3ccccc3)C(=O)N[C@@H](Cc3c[nH]c4ccccc34)C(=O)N[C@@H](CCC(N)=O)C(N)=O)NC(=O)[C@H](C(C)C)NC(=O)[C@H](Cc3ccccc3)NC(=O)[C@H](C)NC(=O)[C@H](C)NC(=O)[C@H](Cc3c[nH]cn3)NC(=O)[C@H](CC(=O)O)NC1=O)NC(=O)[C@H](C)NC(=O)[C@H](CC(=O)O)NC2=O (stereo partly drawn) [I-304, Ac-PL3-Asp-Ala-B5-Asp-His-Ala-Ala-Phe-Val-S8-Phe-Trp-Gln-NH2]	–
3.711	CC(=O)N1CCC[C@]12CC=CCCCC1(CCCC=CCCCCCC[C@@](C)(C(=O)N[C@@H](Cc3ccccc3)C(=O)N[C@@H](Cc3c[nH]c4ccccc34)C(=O)N[C@@H](CCC(N)=O)C(N)=O)NC(=O)[C@H](C(C)C)NC(=O)[C@H](Cc3ccccc3)NC(=O)[C@H](C)NC(=O)[C@H](C)NC(=O)[C@H](CCC(=O)O)NC(=O)[C@H](CCc3ccccc3)NC1=O)NC(=O)[C@H](C)NC(=O)[C@H](CC(=O)O)NC2=O (stereo partly drawn) [I-196, Ac-PL3-Asp-Ala-B5-hPhe-Glu-Ala-Ala-Phe-Val-S8-Phe-Trp-Gln-NH2]	–

Same assay, conditions: pH 7.4, CHI Log D

SMILES	chromatographic logD	logD
CC[C@H](C)[C@H](NC(=O)[C@H](CC(=O)O)NC(=O)[C@H](C)NC(C)=O)C(=O)N[C@]1(C)CCN(C)C(=O)OCC=CCCCCC[C@@](C)(C(=O)N[C@@H](Cc2ccccc2)C(=O)N[C@@H](Cc2c[nH]c3ccccc23)C(=O)N[C@@H](Cc2c[nH]cn2)C(N)=O)NC(=O)[C@H](CCC(N)=O)NC(=O)[C@H](Cc2ccccc2)NC(=O)[C@H](C)NC(=O)[C@H](C)NC(=O)[C@H](CCC(C)C)NC(=O)[C@H](CC(=O)O)NC1=O (single isomer, unassigned) [I-70, Ac-Ala-Asp-Ile-RdN-Asp-hLeu-Ala-Ala-Phe-Gln-S7-Phe-Trp-His-NH2]	1.61	–
CC(=O)N[C@@H](Cc1ccccc1)C(=O)N[C@@H](CC(=O)O)C(=O)N[C@@H](C)C(=O)N[C@]1(C)CN(C)C(=O)OCC=CCCCCC[C@@](C)(C(=O)N[C@@H](Cc2ccccc2)C(=O)N[C@@H](Cc2c[nH]c3ccccc23)C(=O)N[C@@H](CCC(N)=O)C(N)=O)NC(=O)[C@H](C(C)C)NC(=O)[C@H](Cc2ccccc2)NC(=O)[C@H](C)NC(=O)[C@H](C)NC(=O)[C@H](CC(=O)O)NC(=O)[C@H](CC(=O)O)NC1=O (single isomer, unassigned) [I-45, Ac-Phe-Asp-Ala-RgN-Asp-Asp-Ala-Ala-Phe-Val-S7-Phe-Trp-Gln-NH2]	1.21	–
CC(=O)N[C@@H](Cc1ccccc1)C(=O)N[C@@H](CC(=O)O)C(=O)N[C@@H](C)C(=O)N[C@]1(C)CCCCCCC=CCOC(=O)N2CC[C@@](C(=O)N[C@@H](Cc3cccc(C(N)=O)c3)C(=O)N[C@@H](Cc3c[nH]c4ccccc34)C(=O)N[C@@H](CCC(N)=O)C(N)=O)(C2)NC(=O)[C@H](C(C)C)NC(=O)[C@H](Cc2ccccc2)NC(=O)[C@H](C)NC(=O)[C@H](C)NC(=O)[C@H](CC(=O)O)NC(=O)[C@H](CC(=O)O)NC1=O [I-107, Ac-Phe-Asp-Ala-R8-Asp-Asp-Ala-Ala-Phe-Val-PyrS-3CBMF-Trp-Gln-NH2]	1	–

The next lines start with the values.

chromatographic logD	logD	SMILES
3.26	–	CC(=O)N1CCC[C@]12CC=CCCCC1(CCCC=CCCCCCC[C@@](C)(C(=O)N[C@@H](Cc3ccccc3)C(=O)N[C@@H](Cc3csc4ccccc34)C(=O)N[C@@H](CCC(N)=O)C(N)=O)NC(=O)[C@H](C(C)C)NC(=O)[C@H](Cc3ccccc3)NC(=O)[C@H](C)NC(=O)[C@H](C)NC(=O)[C@H](CCc3ccccc3)NC(=O)[C@H](CC(=O)O)NC1=O)NC(=O)[C@H](C)NC(=O)[C@H](CC(=O)O)NC2=O (stereo partly drawn) [I-301, Ac-PL3-Asp-Ala-B5-Asp-hPhe-Ala-Ala-Phe-Val-S8-Phe-BztA-Gln-NH2]
2.7	–	CC(=O)N1CCC[C@]12CC=CCCCC1(CCCC=CCCCCCC[C@@](C)(C(=O)N[C@@H](Cc3ccccc3)C(=O)N[C@@H](Cc3c[nH]c4ccccc34)C(=O)N[C@@H](CCC(N)=O)C(N)=O)NC(=O)[C@H](C(C)C)NC(=O)[C@H](Cc3ccccc3)NC(=O)[C@H](C)NC(=O)[C@H](C)NC(=O)[C@H](CCC(=O)O)NC(=O)[C@H](Cc3ccncc3)NC1=O)NC(=O)[C@H](C)NC(=O)[C@H](CC(=O)O)NC2=O (stereo partly drawn) [I-214, Ac-PL3-Asp-Ala-B5-4pyrA-Glu-Ala-Ala-Phe-Val-S8-Phe-Trp-Gln-NH2]
–	1.86	CC(=O)N1CCC[C@]12CC=CCCCC1(CCCC=CCCCCCC[C@@](C)(C(=O)N[C@@H](Cc3ccccc3)C(=O)N[C@@H](Cc3c[nH]c4ccccc34)C(=O)N[C@@H](CO)C(N)=O)NC(=O)[C@H](C(C)C)NC(=O)[C@H](Cc3ccccc3)NC(=O)[C@H](C)NC(=O)[C@H](C)NC(=O)[C@H](CC(=O)O)NC(=O)[C@H](CC(=O)O)NC1=O)NC(=O)[C@H](C)NC(=O)[C@H](CC(=O)O)NC2=O (single isomer, unassigned) [I-334, Ac-PL3-Asp-Ala-B5-Asp-Asp-Ala-Ala-Phe-Val-S8-Phe-WCHO-Ser-NH2]

From patent US20240116985A1, “STAPLED PEPTIDES AND METHODS THEREOF” (priority 2020, published 2024)
